What was measured:
Format in all cases: functional, cell-based
B16 = assay: Antiproliferative activity against […] cells incubated for 48 to 72 hrs by MTT assay; conditions: Mus musculus
NCI-H1993 = assay: Antiproliferative activity against human NCI-H1993 cells incubated for 48 to 72 hrs by MTT assay
MKN-45 = assay: Antiproliferative activity against human MKN-45 cells incubated for 48 to 72 hrs by MTT assay
HepG2 = assay: Antiproliferative activity against human HepG2 cells incubated for 48 to 72 hrs by MTT assay
KB [1] = assay: Cytotoxicity against human KB cells incubated for 72 hrs by SRB method
KB [2] = assay: Cytotoxicity against human Vincristine-resistant KB cells incubated for 72 hrs by SRB method

Row | Structure (SMILES) | IC50 (B16) | IC50 (NCI-H1993) | IC50 (MKN-45) | IC50 (HepG2) | IC50 (KB [1]) | IC50 (KB [2])
1 | COc1cc([C@@H]2c3cc4c(cc3[C@H](n3cc(COc5ccc6c(c5)OCO6)nn3)[C@H]3COC(=O)[C@H]23)OCO4)cc(OC)c1OC | 0.13 µM | 0.13 µM | 0.13 µM | 0.13 µM | – | –
2 | COc1cc([C@@H]2c3cc4c(cc3[C@@H](SSCCO)[C@H]3COC(=O)[C@H]23)OCO4)cc(OC)c1O | – | – | – | – | 1.12 µM | 1.12 µM
3 | COc1cc([C@@H]2c3cc4c(cc3[C@@H](SSCCCN3CCC(O)CC3)[C@H]3COC(=O)[C@H]23)OCO4)cc(OC)c1O | – | – | – | – | 1.12 µM | 1.12 µM
4 | COc1cc([C@@H]2c3cc4c(cc3[C@H](n3cc(COc5ccc(-c6ccccc6)cc5)nn3)[C@H]3COC(=O)[C@H]23)OCO4)cc(OC)c1OC | 0.15 µM | 0.15 µM | 0.15 µM | 0.15 µM | – | –
5 | COc1cc([C@@H]2c3cc4c(cc3[C@@H](SSCCCN3CCOCC3)[C@H]3COC(=O)[C@H]23)OCO4)cc(OC)c1O | – | – | – | – | 1.12 µM | 1.12 µM
6 | COc1cc([C@@H]2c3cc4c(cc3[C@H](n3cc(COc5ccc(C)c([N+](=O)[O-])c5)nn3)[C@H]3COC(=O)[C@H]23)OCO4)cc(OC)c1OC | 0.13 µM | 0.13 µM | 0.13 µM | 0.13 µM | – | –
7 | COc1cc([C@@H]2c3cc4c(cc3[C@@H](SSCCCN3CCCC3)[C@H]3COC(=O)[C@H]23)OCO4)cc(OC)c1O | – | – | – | – | 1.12 µM | 1.12 µM
8 | COc1cc([C@@H]2c3cc4c(cc3[C@H](n3cc(COc5cccc([N+](=O)[O-])c5)nn3)[C@H]3COC(=O)[C@H]23)OCO4)cc(OC)c1OC | 0.13 µM | 0.13 µM | 0.13 µM | 0.13 µM | – | –
9 | COc1cc([C@@H]2c3cc4c(cc3[C@@H](SSc3cccs3)[C@H]3COC(=O)[C@H]23)OCO4)cc(OC)c1O | – | – | – | – | 1.12 µM | 1.12 µM
10 | COc1cc([C@@H]2c3cc4c(cc3[C@@H](SSSCC(=O)N3CCNCC3)[C@H]3COC(=O)[C@H]23)OCO4)cc(OC)c1O | – | – | – | – | 1.12 µM | 1.12 µM
11 | COc1cc([C@@H]2c3cc4c(cc3[C@@H](SSCCN3CCCC(O)C3)[C@H]3COC(=O)[C@H]23)OCO4)cc(OC)c1O (stereo not given in full) | – | – | – | – | 1.12 µM | 1.12 µM
12 | COc1cc([C@@H]2c3cc4c(cc3[C@@H](SSSCC(O)CO)[C@H]3COC(=O)[C@H]23)OCO4)cc(OC)c1O (stereo not given in full) | – | – | – | – | 1.12 µM | 1.12 µM
13 | COc1ccc(SCc2cn([C@H]3c4cc5c(cc4[C@@H](c4cc(OC)c(OC)c(OC)c4)[C@H]4C(=O)OC[C@@H]43)OCO5)nn2)cc1 | 0.13 µM | 0.13 µM | 0.13 µM | 0.13 µM | – | –
14 | COc1cc([C@@H]2c3cc4c(cc3[C@@H](SSSCCO)[C@H]3COC(=O)[C@H]23)OCO4)cc(OC)c1O | – | – | – | – | 1.12 µM | 1.12 µM
15 | COc1ccc(SCc2cn([C@H]3c4cc5c(cc4[C@@H](c4cc(OC)c(OC)c(OC)c4)[C@H]4C(=O)OC[C@@H]43)OCO5)nn2)cc1OC | 0.13 µM | 0.13 µM | 0.13 µM | 0.13 µM | – | –
16 | COc1cc([C@@H]2c3cc4c(cc3[C@@H](SS[C@@H]3O[C@@H]5O[C@@H](c6cccs6)OC[C@H]5[C@H](O)[C@H]3O)[C@H]3COC(=O)[C@H]23)OCO4)cc(OC)c1O | – | – | – | – | 1.12 µM | 1.12 µM
17 | COc1cc([C@@H]2c3cc4c(cc3[C@@H](SSCC(=O)N3CCC(=O)CC3)[C@H]3COC(=O)[C@H]23)OCO4)cc(OC)c1O | – | – | – | – | 1.12 µM | 1.12 µM
18 | COc1ccc(OCc2cn([C@H]3c4cc5c(cc4[C@@H](c4cc(OC)c(OC)c(OC)c4)[C@H]4C(=O)OC[C@@H]43)OCO5)nn2)cc1 | 0.13 µM | 0.13 µM | 0.13 µM | 0.13 µM | – | –
19 | COc1cc([C@@H]2c3cc4c(cc3[C@@H](SSCCN3CCNCC3)[C@H]3COC(=O)[C@H]23)OCO4)cc(OC)c1O | – | – | – | – | 1.12 µM | 1.12 µM
20 | COc1cc([C@@H]2c3cc4c(cc3[C@@H](SSCCCN3CCN(C)CC3)[C@H]3COC(=O)[C@H]23)OCO4)cc(OC)c1O | – | – | – | – | 1.12 µM | 1.12 µM
21 | COc1cc([C@@H]2c3cc4c(cc3[C@@H](SSCCN3CCOCC3)[C@H]3COC(=O)[C@H]23)OCO4)cc(OC)c1O | – | – | – | – | 1.12 µM | 1.12 µM
22 | COc1cc([C@@H]2c3cc4c(cc3[C@@H](SSCCCN3CCN(C(C)=O)CC3)[C@H]3COC(=O)[C@H]23)OCO4)cc(OC)c1O | – | – | – | – | 1.12 µM | 1.12 µM
23 | COc1cc([C@@H]2c3cc4c(cc3[C@@H](SSCCCN(C(C)C)C(C)C)[C@H]3COC(=O)[C@H]23)OCO4)cc(OC)c1O | – | – | – | – | 1.12 µM | 1.12 µM
24 | COc1cc([C@@H]2c3cc4c(cc3[C@@H](SSS[C@@H]3O[C@H](CO)[C@@H](O)[C@H](O)[C@H]3O)[C@H]3COC(=O)[C@H]23)OCO4)cc(OC)c1O | – | – | – | – | 1.12 µM | 1.12 µM

Row | Structure (SMILES) | IC50 (B16) | IC50 (NCI-H1993) | IC50 (MKN-45) | IC50 (HepG2) | IC50 (KB [1]) | IC50 (KB [2])
25 | COc1cc([C@@H]2c3cc4c(cc3[C@@H](SSc3cccnc3)[C@H]3COC(=O)[C@H]23)OCO4)cc(OC)c1O | – | – | – | – | 1.12 µM | 1.12 µM
26 | COc1cc([C@@H]2c3cc4c(cc3[C@@H](SSCC(=O)N3CCCC(O)C3)[C@H]3COC(=O)[C@H]23)OCO4)cc(OC)c1O (stereo not given in full) | – | – | – | – | 1.12 µM | 1.12 µM
27 | COC(=O)C(N)CSS[C@@H]1c2cc3c(cc2[C@@H](c2cc(OC)c(O)c(OC)c2)[C@H]2C(=O)OC[C@@H]21)OCO3 (stereo not given in full) | – | – | – | – | 1.12 µM | 1.12 µM
28 | COc1cc([C@@H]2c3cc4c(cc3[C@@H](SSCC(=O)N3CCOCC3)[C@H]3COC(=O)[C@H]23)OCO4)cc(OC)c1O | – | – | – | – | 1.12 µM | 1.12 µM
29 | COc1cc([C@@H]2c3cc4c(cc3[C@@H](SSCCN)[C@H]3COC(=O)[C@H]23)OCO4)cc(OC)c1O | – | – | – | – | 1.12 µM | 1.12 µM
30 | COc1cc([C@@H]2c3cc4c(cc3[C@@H](SSCC(=O)N3CCC(O)CC3)[C@H]3COC(=O)[C@H]23)OCO4)cc(OC)c1O | – | – | – | – | 1.12 µM | 1.12 µM
31 | COc1cc([C@@H]2c3cc4c(cc3[C@@H](SSc3ccccn3)[C@H]3COC(=O)[C@H]23)OCO4)cc(OC)c1O | – | – | – | – | 1.12 µM | 1.12 µM
32 | COc1cc([C@@H]2c3cc4c(cc3[C@@H](SS[C@@H]3O[C@H](CO)[C@@H](O)[C@H](O)[C@H]3O)[C@H]3COC(=O)[C@H]23)OCO4)cc(OC)c1O | – | – | – | – | 1.12 µM | 1.12 µM
33 | CCN(CC)CCCSS[C@@H]1c2cc3c(cc2[C@@H](c2cc(OC)c(O)c(OC)c2)[C@H]2C(=O)OC[C@@H]21)OCO3 | – | – | – | – | 1.12 µM | 1.12 µM
34 | CCC(C)(C)c1ccc(OCc2cn([C@H]3c4cc5c(cc4[C@@H](c4cc(OC)c(OC)c(OC)c4)[C@H]4C(=O)OC[C@@H]43)OCO5)nn2)cc1 | 0.13 µM | 0.13 µM | 0.13 µM | 0.13 µM | – | –
35 | CCSSS[C@@H]1c2cc3c(cc2[C@@H](c2cc(OC)c(O)c(OC)c2)[C@H]2C(=O)OC[C@@H]21)OCO3 | – | – | – | – | 1.12 µM | 1.12 µM
36 | COc1cc([C@@H]2c3cc4c(cc3[C@H](n3cc(COc5ccc6ccc(=O)oc6c5)nn3)[C@H]3COC(=O)[C@H]23)OCO4)cc(OC)c1OC | 0.13 µM | 0.13 µM | 0.13 µM | 0.13 µM | – | –
37 | COc1cc([C@@H]2c3cc4c(cc3[C@@H](SS[C@@H]3O[C@@H]5O[C@@H](C)OC[C@H]5[C@H](O)[C@H]3O)[C@H]3COC(=O)[C@H]23)OCO4)cc(OC)c1O | – | – | – | – | 1.12 µM | 1.12 µM
38 | CCc1ccc(OC(C)(C)c2cn([C@H]3c4cc5c(cc4[C@@H](c4cc(OC)c(OC)c(OC)c4)[C@H]4C(=O)OC[C@@H]43)OCO5)nn2)cc1 | 0.15 µM | 0.15 µM | 0.15 µM | 0.15 µM | – | –
39 | CCc1ccc(OCc2cn([C@H]3c4cc5c(cc4[C@@H](c4cc(OC)c(OC)c(OC)c4)[C@H]4C(=O)OC[C@@H]43)OCO5)nn2)cc1 | 0.13 µM | 0.13 µM | 0.13 µM | 0.13 µM | – | –
40 | COc1cc([C@@H]2c3cc4c(cc3[C@@H](SSCC(=O)N3CCNCC3)[C@H]3COC(=O)[C@H]23)OCO4)cc(OC)c1O | – | – | – | – | 1.12 µM | 1.12 µM
41 | COc1cc([C@@H]2c3cc4c(cc3[C@@H](SSCCCN3CCCCC3)[C@H]3COC(=O)[C@H]23)OCO4)cc(OC)c1O | – | – | – | – | 1.12 µM | 1.12 µM
42 | COc1cc([C@@H]2c3cc4c(cc3[C@@H](SS[C@@H]3O[C@H](COC(C)=O)[C@H](OC(C)=O)[C@H](OC(C)=O)[C@H]3OC(C)=O)[C@H]3COC(=O)[C@H]23)OCO4)cc(OC)c1O | – | – | – | – | 1.12 µM | 1.12 µM
43 | COc1cc([C@@H]2c3cc4c(cc3[C@@H](SSCCCN3CCCCC3CO)[C@H]3COC(=O)[C@H]23)OCO4)cc(OC)c1O (stereo not given in full) | – | – | – | – | 1.12 µM | 1.12 µM
44 | COc1cc([C@@H]2c3cc4c(cc3[C@@H](SSSCCCN3CCOCC3)[C@H]3COC(=O)[C@H]23)OCO4)cc(OC)c1O | – | – | – | – | 1.12 µM | 1.12 µM
45 | COc1cc([C@@H]2c3cc4c(cc3[C@H](n3cc(COc5ccc([N+](=O)[O-])cc5)nn3)[C@H]3COC(=O)[C@H]23)OCO4)cc(OC)c1OC | 0.13 µM | 0.13 µM | 0.13 µM | 0.13 µM | – | –
46 | CCSS[C@@H]1c2cc3c(cc2[C@@H](c2cc(OC)c(O)c(OC)c2)[C@H]2C(=O)OC[C@@H]21)OCO3 | – | – | – | – | 1.12 µM | 1.12 µM
47 | COc1cc([C@@H]2c3cc4c(cc3[C@@H](SSCCCN3CCNCC3)[C@H]3COC(=O)[C@H]23)OCO4)cc(OC)c1O | – | – | – | – | 1.12 µM | 1.12 µM
48 | COc1cc([C@@H]2c3cc4c(cc3[C@@H](SS[C@@H]3O[C@H](CO)[C@H](O)[C@H](O)[C@H]3O)[C@H]3COC(=O)[C@H]23)OCO4)cc(OC)c1O | – | – | – | – | 1.12 µM | 9.96 µM
